Source: US20250353841A1 (BIOGEN MA INC., priority 2022, published 2025)

The molecules below were run on mutant Huntington (HTT) protein (assay: HTT Mutant HTRF iPSC assay (mHTT protein lowering)). Conditions: human iPSC derived from a HTT patient with a poly-Q49 mutation.
Format: cell-based

Question: With `Cc1cn2nc(-c3cc(F)c4nc(C5CCN(C)CC5)nn4c3)cc(C)c2n1` [Compound 434, 6-(2,8-dimethylimidazo[1,2-b]pyridazin-6-yl)-8-fluoro-2-(1-methylpiperidin-4-yl)-[1,2,4]triazolo[1,5-a]pyridine] as the molecule, how does the IC50 read?
Answer: 100 to 1000 nM

Question: Which IC50 does the source give for `Fc1cc(F)c2nc(-c3cc(F)c4nc(C5CCNCC5)cn4c3)oc2c1` [Compound 124, 4,6-difluoro-2-(8-fluoro-2-(piperidin-4-yl)imidazo[1,2-a]pyridin-6-yl)benzo[d]oxazole] here?
Answer: 1000 to 9000 nM

Question: For `Cc1cn2nc(-c3cc(F)c4nn(C5CCN(C6CC6)CC5)cc4c3)cc(C(F)F)c2n1` [Compound 354, 6-(2-(1-cyclopropylpiperidin-4-yl)-7-fluoro-2H-indazol-5-yl)-8-(difluoromethyl)-2-methylimidazo[1,2-b]pyridazine], which IC50 is on record?
Answer: 100 to 1000 nM

Question: How did the IC50 turn out when `Cc1cn2cc(-c3cc(F)c4oc(N(C)CCN5CCOCC5)nc4c3)cc(F)c2n1` [Compound 532, 7-fluoro-5-(8-fluoro-2-methylimidazo[1,2-a]pyridin-6-yl)-N-methyl-N-(2-morpholinoethyl)benzo [d]oxazol-2-amine] was run?
Answer: 1000 to 9000 nM

Question: With `CN1CCC2(c3cn4cc(-c5cc(F)c6nn(C)cc6c5)cc(F)c4n3)CC1C2` [Compound 76, 5-(8-fluoro-6-(7-fluoro-2-methyl-2H-indazol-5-yl)imidazo[1,2-a]pyridin-2-yl)-2-methyl-2-azabicyclo[3.1.1]heptane] as the molecule, how does the IC50 read?
Answer: 1000 to 9000 nM

Question: For `CNCCc1cn2cc(-c3cc(F)c4nc(C)cn4c3)cc(F)c2n1` [Compound 24, 2-(8,8′-difluoro-2′-methyl-[6,6′-biimidazo[1,2-a]pyridin]-2-yl)-N-methylethan-1-amine], which IC50 is on record?
Answer: 1000 to 9000 nM

Question: `Cc1cn2nc(-c3cc(F)c4nc(N(C)C5CCNC(C)(C)C5)oc4c3)cc(C)c2n1` (single isomer, unassigned) [Compound 509] was tested. Which IC50 did it give?
Answer: 100 to 1000 nM

Question: With `Fc1cc(-c2cc(F)c3nc(C4CCNCC4)cn3c2)cc2[nH]ncc12` [Compound 52, 4-fluoro-6-(8-fluoro-2-(piperidin-4-yl)imidazo[1,2-a]pyridin-6-yl)-1H-indazole] as the molecule, how does the IC50 read?
Answer: 1000 to 9000 nM

Question: How did the IC50 turn out when `Cc1cn2nc(-c3cc(F)c4nc(C5CCNCC5)oc4c3)cc(C)c2n1` [Compound 154, 6-(2,8-dimethylimidazo[1,2-b]pyridazin-6-yl)-4-fluoro-2-(4-piperidyl)-1,3-benzoxazole] was run?
Answer: < 100 nM

Question: With `Cc1cn2nc(-c3cc(F)c4nc(NC(=O)C5(C)CNC5)cn4c3)cc(C)c2n1` [Compound 258, N-(6-(2,8-dimethylimidazo[1,2-b]pyridazin-6-yl)-8-fluoroimidazo[1,2-a]pyridin-2-yl)-3-methylazetidine-3-carboxamide] as the molecule, how does the IC50 read?
Answer: < 100 nM

Question: For `Cc1cn2nc(-c3cc(F)c4nc([C@H]5C[C@@H](C)N[C@@H](C)C5)cn4c3)cc(C)c2n1` [Compound 215, 6-(2-((2S,4r,6R)-2,6-dimethylpiperidin-4-yl)-8-fluoroimidazo[1,2-a]pyridin-6-yl)-2,8-dimethylimidazo[1,2-b]pyridazine], which IC50 is on record?
Answer: < 100 nM

Question: How did the IC50 turn out when `Cc1cn2nc(-c3cc(F)c4nc(C5CCN(C)CC5)cn4c3)cc(C(F)F)c2n1` [Compound 166, 8-(difluoromethyl)-6-(8-fluoro-2-(1-methylpiperidin-4-yl)imidazo[1,2-a]pyridin-6-yl)-2-methylimidazo[1,2-b]pyridazine] was run?
Answer: < 100 nM

Question: For `Cc1cn2nc(-c3cc(F)c4nc(N5CCC6(CCN(C)CC6)C5)oc4c3)cc(C(F)F)c2n1` [Compound 507, 6-(8-(difluoromethyl)-2-methylimidazo[1,2-b]pyridazin-6-yl)-4-fluoro-2-(8-methyl-2,8-diazaspiro[4.5]decan-2-yl)benzo[d]oxazole], which IC50 is on record?
Answer: < 100 nM

Question: `Cc1cn2nc(-c3cc(F)c4nc(C5CCN(CC6CCC6)CC5)nn4c3)cc(C)c2n1` [Compound 444, 2-(1-(cyclobutylmethyl)piperidin-4-yl)-6-(2,8-dimethylimidazo[1,2-b]pyridazin-6-yl)-8-fluoro-[1,2,4]triazolo[1,5-a]pyridine] was tested. Which IC50 did it give?
Answer: 100 to 1000 nM
